Test results taken from ChEMBL document CHEMBL5233249, “Recent advancements in the development of heterocyclic anti-inflammatory agents” (Eur J Med Chem, 2020).
Values after ≈ are worked out from the molar mass of the structure shown.

Legend:
[1] = Cytotoxicity against mouse RAW264.7 cells assessed as decreased cell viability measured after 24 hrs by MTT assay; format: toxicity, cell-based
[2] = system: BV-2; test: Antineuroinflammatory activity against mouse BV-2 cells assessed as inhibition of LPS-induced NO production by Griess assay relative to control; format: functional; parameters: scale not given: the % may be the effect or the level left
[3] = system: RAW264.7; test: Anti-inflammatory activity in mouse RAW264.7 cells assessed as inhibition of LPS-induced reduction in TNFalpha production; format: functional, cell-based
[4] = system: RAW264.7; test: Anti-inflammatory activity in mouse RAW264.7 cells assessed as inhibition of LPS-induced TNFalpha production measured after 24 hrs by EIA method relative to control; format: functional; parameters: scale not given: the % may be the effect or the level left
[5] = system: RAW264.7; test: Anti-inflammatory activity in mouse RAW264.7 cells assessed as decreased production of LPS-induced IL-1beta production; format: functional
[6] = target: T1, Prostaglandin G/H synthase 2 (Homo sapiens, UniProt P35354); test: Inhibition of COX-2 (unknown origin) at 0.1 uM
T1 sequence (P35354 whole entry): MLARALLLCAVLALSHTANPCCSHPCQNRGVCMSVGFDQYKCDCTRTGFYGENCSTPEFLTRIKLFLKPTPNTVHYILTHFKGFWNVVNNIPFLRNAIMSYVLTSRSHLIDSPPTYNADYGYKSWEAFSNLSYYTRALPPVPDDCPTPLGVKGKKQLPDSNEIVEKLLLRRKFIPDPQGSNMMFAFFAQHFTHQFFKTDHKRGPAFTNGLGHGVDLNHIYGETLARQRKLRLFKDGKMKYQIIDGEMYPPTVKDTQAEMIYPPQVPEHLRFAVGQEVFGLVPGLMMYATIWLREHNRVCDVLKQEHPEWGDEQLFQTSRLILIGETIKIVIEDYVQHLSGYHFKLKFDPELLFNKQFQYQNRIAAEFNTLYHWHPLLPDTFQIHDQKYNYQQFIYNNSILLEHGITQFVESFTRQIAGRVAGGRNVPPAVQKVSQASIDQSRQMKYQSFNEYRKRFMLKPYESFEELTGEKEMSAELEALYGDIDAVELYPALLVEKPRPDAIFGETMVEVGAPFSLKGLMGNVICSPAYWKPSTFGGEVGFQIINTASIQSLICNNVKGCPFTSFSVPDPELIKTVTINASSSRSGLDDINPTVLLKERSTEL

[7] = system: RAW264.7; test: Anti-inflammatory activity in mouse RAW264.7 cells assessed as decreased production of LPS-induced IL-6 production; format: functional
[8] = system: Rattus norvegicus; test: Anti-inflammatory activity in Carrageenan-induced paw edema in Wistar albino rat assessed as inhibition of paw edema measured after 6 hr relative to control; format: functional
[9] = system: Rattus norvegicus; test: Anti-inflammatory activity in Carrageenan-induced paw edema in Wistar albino rat assessed as inhibition of paw edema measured after 1 hr relative to control; format: functional
[10] = system: RAW264.7; test: Anti-inflammatory activity in mouse RAW264.7 cells assessed as decreased production of LPS-induced TNFalpha production; format: functional; details: read-out: ED50 (the source's name)
[11] = system: Rattus norvegicus; test: Anti-inflammatory activity in Carrageenan-induced paw edema in Wistar albino rat assessed as inhibition of paw edema measured after 3 hr relative to control; format: functional

| Structure (SMILES) | CC50 at 24 h [1] | Activity [2] | IC50 [3] | Activity [4] | Activity [5] | IC50 [6] | Activity [7] | inhibition (INH) [8] | inhibition (INH) [9] | EC50 [10] | inhibition (INH) [11] |
| --- | --- | --- | --- | --- | --- | --- | --- | --- | --- | --- | --- |
| CCc1ccc(C/C=C2\CCOc3cc(OC)cc(OC)c3C2=O)cc1 | 43.6 µM | 87.9% | 5.2 µM | 96.4% |  |  |  |  |  |  |  |
| COc1ccc(C2=NNC(S)C2N(CN2C(=O)/C(=C\c3nnc(-c4ccc(-c5ccc(OC)cc5)cc4)s3)c3ccccc32)C(=O)c2ccccc2)cc1 (stereo unspecified) |  |  |  |  | 35.1 ng/mL | 53.1 µM | 102.1 ng/mL | 57.14% | 50% | 0.0559 µg/mL (≈ 0.0744 µM) | 52.63% |
